Structures are written as SMILES. “And” between values parts separate entries of the source, which are not always exact repeats. Identical values can stand only once. The source made the active and inactive calls. Bounds are passed on as bounds.

31 compounds from ChEMBL document CHEMBL1201862, “PubChem BioAssay data set” (2004) can be followed below.

One assay has as its target Cytochrome P450 3A4 (Homo sapiens, UniProt P08684).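 Also: CYP3A4 tested as one member of a cytochrome P450 panel screen.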
The next assay relates to H4. Put plainly: Luminescence Cell-Based Dose Response HTS to Identify Activators of 5'UTR Stem-Loop Driven Prion Protein mRNA Translation in H4 Neuroglioblastoma Cells. [Related pubchem assays: 1829 (Project Summary), 1814 (Primary HTS)]. The format is functional. Particulars: Homo sapiens.
A short description of assay [1]: Luminescence Cell-Based Dose Confirmation HTS to Identify Activators of 5'UTR Stem-Loop Driven Alpha-Synuclein mRNA Translation in H4 Neuroglioblastoma Cells. [Related pubchem assays: 1829 (Project Summary), 1814 (Primary HTS)]. The assay is classed as functional.
Assay [2] is described as follows: Luminescence Cell-Based Dose Response HTS to Identify Activators of Luciferase Translation or Activity in H4 […] Cells. [Related pubchem assays: 1829 (Project Summary), 1814 (Primary HTS)]. The assay is classed as functional.
For assay [3], the target named is T1, Corticotropin-releasing factor receptor 2/Corticotropin-releasing factor-binding protein (Homo sapiens, UniProt P24387+Q13324).
T1 sequence (Q13324 whole entry): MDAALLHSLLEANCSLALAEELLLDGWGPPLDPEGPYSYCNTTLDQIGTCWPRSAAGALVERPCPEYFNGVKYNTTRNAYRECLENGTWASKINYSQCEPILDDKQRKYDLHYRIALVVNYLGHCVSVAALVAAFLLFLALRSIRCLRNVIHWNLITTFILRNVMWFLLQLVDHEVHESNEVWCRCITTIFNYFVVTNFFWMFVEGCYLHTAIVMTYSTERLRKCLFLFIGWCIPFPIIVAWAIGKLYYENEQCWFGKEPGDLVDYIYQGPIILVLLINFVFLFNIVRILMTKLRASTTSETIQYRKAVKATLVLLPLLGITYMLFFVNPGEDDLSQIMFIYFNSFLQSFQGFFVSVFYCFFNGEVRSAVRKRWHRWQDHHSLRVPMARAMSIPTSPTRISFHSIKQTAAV
T1 sequence (P24387 whole entry): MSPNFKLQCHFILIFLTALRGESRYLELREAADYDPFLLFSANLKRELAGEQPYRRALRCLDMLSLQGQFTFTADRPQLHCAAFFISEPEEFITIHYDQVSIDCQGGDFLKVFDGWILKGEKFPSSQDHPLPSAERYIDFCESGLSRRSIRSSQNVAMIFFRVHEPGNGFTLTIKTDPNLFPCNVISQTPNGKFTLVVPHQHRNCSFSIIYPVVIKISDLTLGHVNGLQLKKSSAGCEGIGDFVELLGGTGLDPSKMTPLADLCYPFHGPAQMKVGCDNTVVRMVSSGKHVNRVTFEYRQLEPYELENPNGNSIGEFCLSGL
Put plainly: Dose Response confirmation of uHTS hits for small molecule antagonists of the CRF-binding protein and CRF-R2 receptor complex. The assay is classed as functional. The following applies: read-out: IC50_Mean.

Assay [4] concerns the target T1, Corticotropin-releasing factor receptor 2/Corticotropin-releasing factor-binding protein. Put plainly: activators of CRF receptor 2 with binding protein – uHTS hits, confirmation (AID 602473). The format is functional. Particulars: read-out: EC50_Mean.
The next assay deals with T2, Cytochrome P450 1A2 (Homo sapiens, UniProt P05177).
T2 sequence (P05177 whole entry): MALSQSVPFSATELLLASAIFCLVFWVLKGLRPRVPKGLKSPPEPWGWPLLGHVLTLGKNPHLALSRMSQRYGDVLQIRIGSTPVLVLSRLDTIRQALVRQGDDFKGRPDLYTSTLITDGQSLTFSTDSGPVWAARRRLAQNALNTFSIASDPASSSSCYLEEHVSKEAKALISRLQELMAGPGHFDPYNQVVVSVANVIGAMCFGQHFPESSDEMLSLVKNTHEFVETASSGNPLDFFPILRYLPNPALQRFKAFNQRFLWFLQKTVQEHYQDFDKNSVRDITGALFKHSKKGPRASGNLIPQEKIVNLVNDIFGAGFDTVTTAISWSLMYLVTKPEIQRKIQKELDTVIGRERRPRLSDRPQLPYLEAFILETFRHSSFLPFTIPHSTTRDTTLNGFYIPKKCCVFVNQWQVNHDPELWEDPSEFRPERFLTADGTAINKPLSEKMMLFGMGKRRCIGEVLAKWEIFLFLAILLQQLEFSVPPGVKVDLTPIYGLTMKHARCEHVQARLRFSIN

A further assay deals with Cytochrome P450 2C9 (Homo sapiens, UniProt P11712).
In assay [5] the target is T3, Heat shock factor protein 1 (Mus musculus, UniProt P38532).
T3 sequence (P38532 whole entry): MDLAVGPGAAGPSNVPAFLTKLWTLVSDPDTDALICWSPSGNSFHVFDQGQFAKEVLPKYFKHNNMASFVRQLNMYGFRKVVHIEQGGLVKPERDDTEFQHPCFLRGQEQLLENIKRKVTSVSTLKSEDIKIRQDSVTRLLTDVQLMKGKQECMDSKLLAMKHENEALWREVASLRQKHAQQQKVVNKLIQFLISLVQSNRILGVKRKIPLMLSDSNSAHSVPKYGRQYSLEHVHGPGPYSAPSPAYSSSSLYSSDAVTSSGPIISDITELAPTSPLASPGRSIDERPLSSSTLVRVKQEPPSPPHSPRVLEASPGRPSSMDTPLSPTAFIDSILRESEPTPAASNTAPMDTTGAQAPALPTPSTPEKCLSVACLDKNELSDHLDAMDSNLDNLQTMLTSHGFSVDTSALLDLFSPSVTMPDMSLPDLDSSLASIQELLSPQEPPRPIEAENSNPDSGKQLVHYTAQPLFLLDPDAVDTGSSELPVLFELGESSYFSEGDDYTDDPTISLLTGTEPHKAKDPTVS
Put plainly: HSF1 potentiators in luciferase reporter cells, confirmation, cell-based, NIH3T3, luminescence, dose retest (AID 435004).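 Also: stress induced by proteasome inhibitor MG132 added 30 min after compound; luciferase reporter driven by HSF1 response element in NIH3T3 cells; actives raise luminescence as potentiators of the MG132 stress response.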 The assay is classed as functional. In general terms: A reporter such as luciferase makes a cellular process visible.

A further assay deals with SN12K1. Put plainly: cells. The format is functional. Particulars: Homo sapiens.
A further assay relates to P388/ADR. In words: cells. The assay is classed as functional. Particulars: Mus musculus.
The subject of a further assay is P388. Put plainly: cells. The assay is classed as functional. Particulars: Mus musculus.

Sequence of Cytochrome P450 2C9 (P11712 whole entry): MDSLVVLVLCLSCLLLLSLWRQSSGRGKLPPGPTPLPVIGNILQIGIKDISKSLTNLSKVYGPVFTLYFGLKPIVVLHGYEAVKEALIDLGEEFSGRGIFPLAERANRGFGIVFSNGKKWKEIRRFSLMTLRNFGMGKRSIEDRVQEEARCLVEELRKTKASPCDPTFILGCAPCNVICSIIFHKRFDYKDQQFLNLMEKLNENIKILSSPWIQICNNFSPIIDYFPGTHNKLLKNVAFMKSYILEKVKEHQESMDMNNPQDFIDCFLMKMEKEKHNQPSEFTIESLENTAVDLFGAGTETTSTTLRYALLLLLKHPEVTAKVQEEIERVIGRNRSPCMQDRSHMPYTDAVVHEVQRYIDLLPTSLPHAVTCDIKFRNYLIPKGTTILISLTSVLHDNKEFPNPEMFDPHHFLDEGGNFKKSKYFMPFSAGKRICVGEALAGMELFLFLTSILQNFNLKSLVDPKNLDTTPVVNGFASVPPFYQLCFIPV
Sequence of Cytochrome P450 3A4 (P08684 whole entry): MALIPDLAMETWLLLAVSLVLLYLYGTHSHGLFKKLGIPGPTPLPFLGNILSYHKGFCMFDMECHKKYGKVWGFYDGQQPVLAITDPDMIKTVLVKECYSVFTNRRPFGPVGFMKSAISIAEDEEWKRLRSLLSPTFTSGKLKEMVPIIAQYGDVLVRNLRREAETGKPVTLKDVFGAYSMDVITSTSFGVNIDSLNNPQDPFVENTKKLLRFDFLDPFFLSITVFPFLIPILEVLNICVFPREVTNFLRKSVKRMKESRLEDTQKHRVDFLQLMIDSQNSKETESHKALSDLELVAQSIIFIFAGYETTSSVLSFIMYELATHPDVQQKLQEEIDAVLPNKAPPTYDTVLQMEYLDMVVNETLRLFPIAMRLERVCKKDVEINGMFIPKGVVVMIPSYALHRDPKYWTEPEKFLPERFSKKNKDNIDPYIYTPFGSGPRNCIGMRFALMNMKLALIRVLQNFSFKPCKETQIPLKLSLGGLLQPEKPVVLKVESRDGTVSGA

As to `O=c1c(-c2ccccc2)nc2cnc(N3CCOCC3)nc2n1-c1ccccc1`, the AC50 on Cytochrome P450 3A4 was 20 µM (inconclusive).
For the compound `COc1ccc(C(=O)OCc2csc(C)n2)c(O)c1`, the EC50 with H4 was 79.1 µM (active); in [1] it was 40.5 µM (active); in [2] it was > 120 µM (not active).
In the case of `Cc1cc(/C=C(\C#N)C(=O)NCC2CCCO2)c(C)n1-c1ccc(Cl)cc1` (stereo not drawn), the values for the EC50 (in the assay with H4; in assay [1]; in assay [2]) were 8.94 µM (active), 10 µM (active) and 30.1 µM (active), respectively.
`COCCNC(=O)COc1ccc(OCCNC[C@@H](O)COc2ccccc2)cc1`: the AC50 on Cytochrome P450 3A4 is 31.6 µM (inconclusive).
`CCN1C(=O)[C@H]2[C@H]3[C@H](O)[C@H](O)C/C(=N/O[C@@H](C)c4cn([C@H](CO)Cc5ccccc5)nn4)[C@@H]3CC[C@@H]2C1=O`: the AC50 at Cytochrome P450 3A4 is 3.16 µM (inconclusive) and 5.01 µM (inconclusive).
Take `CC1CCN(S(=O)(=O)c2ccc3c(c2)NC(=O)CS3)CC1`: in assay [3], the IC50 was > 47.1 µM (inactive). Also, in assay [4], the EC50 was > 53 µM (inactive).
As to `N=C(Nc1ccc(I)cc1)NC1C2CC3CC(C2)CC1C3` (stereo not drawn), the AC50 on Cytochrome P450 3A4 was 15.8 µM (inconclusive); on Cytochrome P450 1A2 it was 39.8 µM (inconclusive).
In the case of `Cc1cc(C)nc(Nc2n[nH]c(COc3ccccc3)n2)n1`, the EC50 in the assay with H4 was > 120 µM (not active); in [1], 4.85 µM (active); in assay [2], 21.8 µM (active).
`COc1ccc(CNc2nc3nc4c(c(O)n3n2)CCC4)cc1`: the AC50 at Cytochrome P450 2C9 was 22.4 µM (inconclusive); at Cytochrome P450 3A4 it was 39.8 µM (inconclusive).
In the case of `Clc1ccc(-n2cc(COCc3ccccc3)nn2)cc1`, the EC50 in [5] was > 260 µM (inconclusive); in [4], > 53 µM (inactive). For the same compound, the IC50 in assay [3] is > 47.1 µM (inactive).
For the compound `O=C(CCl)Nc1cccc(S(=O)(=O)NC2=NCCC2)c1`, the EC50 is > 120 µM (not active) in the assay with H4, 45.1 µM (active) in [1] and 62.6 µM (active) in [2].
Take `Cn1cnnc1SCC(=O)n1c2ccccc2c2ccccc21`: the AC50 at Cytochrome P450 2C9 is 0.00562 µM (inconclusive); on Cytochrome P450 3A4, 25.1 µM (inconclusive).
For the compound `COCC(=O)N1CCC[C@@]2(CCN(Cc3ccc(C#N)cc3)C2)C1`, the AC50 at Cytochrome P450 3A4 is 12.6 µM (inconclusive).
With `O=C1c2ccccc2C(O)(C(=O)O)C1(O)CC=C(Cl)Cl` (stereo not drawn), the GI50 was > 125 µM (inactive) with SN12K1, > 70.3 µM (inactive) in the assay with P388/ADR and > 125 µM (inactive) in the assay on P388.
On to `O=C(O)C(Cc1cccs1)NC(=O)C(F)(F)F` (stereo not drawn), for which the GI50 is > 100 µM (inactive) with SN12K1, > 100 µM (inactive) with P388/ADR and > 57.9 µM (inactive) with P388.
As for `CS(=O)(=O)OCCCNCCCOS(C)(=O)=O`, the GI50 was 753 µM (inactive) in the assay on SN12K1, 392 µM (inactive) in the assay with P388/ADR and 418 µM (inactive) with P388.
With `CC(C)[C@H](NC(=O)OC(C)(C)C)C(=O)N/N=C/c1ccc2nccnc2c1`, in assay [3], the IC50 is > 47.1 µM (inactive). In addition, the EC50 in [4] is > 53 µM (inactive).
As to `CCCCCCCCCCCCOCCCOP(=O)([O-])OCC[N+](C)(C)C`, the figures for the GI50 in the assay on SN12K1, in the assay on P388/ADR and in the assay on P388 were > 100 µM (inactive), > 100 µM (inactive) and 27.9 µM (inactive), respectively.
In the case of `CCn1c(=O)c(C(=O)O)c(Cl)c2cc3c(cc21)OCO3`, the GI50 in the assay on SN12K1, in the assay with P388/ADR and in the assay on P388 was > 100 µM (inactive) each time.
Take `CC1CC(C)(O)C2C3(C)CCCC2(COC3=O)C12CCC1(CCOC1=O)O2` (stereo not drawn): the GI50 in the assay with SN12K1 is > 250 µM (inactive); in the assay with P388/ADR it was 141 µM (inactive); in the assay on P388, > 250 µM (inactive).
`CC1(C)N=C(N)N=C(N)N1c1ccc(CCc2ccccc2)cc1`: the GI50 in the assay on SN12K1 was 0.533 µM (active); in the assay on P388/ADR, 22.2 µM (inactive); in the assay on P388 it was < 0.01 µM (active).
Take `CC(C)CCCC(C)[C@H]1CCC(C2C[C@@H](O)[C@@H]3CC(O)[C@@H](O)C[C@]3(CO)C2=O)[C@]1(C)CCO` (stereo partly drawn): the GI50 with SN12K1 is 18.7 µM (inactive); with P388/ADR, 27 µM (inactive); in the assay on P388, 17.5 µM (inactive).
Regarding `C/C(=N/NC(=O)c1ccoc1C)C12CC3CC(CC(C3)C1)C2`, the EC50 in the assay on H4 is 42.6 µM (active); in [1], > 120 µM (not active); in assay [2] it was > 120 µM (not active).
As for `CC(=O)Nc1ccc(S(=O)(=O)N/N=C/c2ccc(C)s2)cc1`, the values for the EC50 (with H4; in assay [1]; in assay [2]) were 53.5 µM (active), 5.39 µM (active) and 33.8 µM (active), respectively.
In the case of `CCN1CCN(/C=N/c2nc(C)cs2)CC1`, the EC50 in the assay with H4 is > 120 µM (not active); in assay [1] it was 14.2 µM (active); in assay [2], 51.9 µM (active).
As for `COc1ccc(/C=N/OCc2nc3c4c(ncn3n2)Oc2ccc3ccccc3c2C4c2ccccc2)cc1` (stereo not drawn), the half-maximal activity concentration (AC50) at Cytochrome P450 2C9 is 1.26 µM (inconclusive); on Cytochrome P450 3A4, 39.8 µM (inconclusive).
`OCC1OC(n2cnc3c2NC=NC[C@H]3O)C(O)C1O` (stereo partly drawn): the GI50 in the assay on SN12K1 is 224 µM (inactive); in the assay with P388/ADR it was > 366 µM (inactive); in the assay on P388 it was > 366 µM (inactive).
For the compound `O=c1onc2cnc3ccccc3n12`, the AC50 was 39.8 µM (inconclusive) on Cytochrome P450 2C9 and 31.6 µM (inconclusive) on Cytochrome P450 3A4.
With `C[C@]12CC[C@H](OC3OC(CO)C(O)C(O)C3O)C[C@H]1CC[C@@H]1[C@@H]2CC[C@]2(C)[C@@H](C3=CCOC3=O)CC[C@]12O` (stereo partly drawn) [ACTODIGIN], the results for the GI50 with SN12K1, with P388/ADR and in the assay with P388 were 11 µM (inactive), 6.12 µM (inactive) and 7.76 µM (inactive), respectively.
Regarding `CC(C)c1oc(=O)cc2c1C(O)C1OC(=O)C3(C)C(O)C4OC4C2(C)C13` (stereo not drawn) [NAGILACTONE], the GI50 is 1.46 µM (inactive) in the assay with SN12K1, 2.52 µM (inactive) in the assay with P388/ADR and 0.365 µM (active) in the assay with P388.
For `Nc1ncnc2c1nc(Cl)n2[C@@H]1O[C@@H]2COP(=O)(O)O[C@H]2[C@H]1O` [TOCLADESINE], the GI50 is 7.26 µM (inactive) in the assay on SN12K1, 4.53 µM (inactive) with P388/ADR and 36.7 µM (inactive) in the assay on P388.

As a reminder, the AC50 is the midpoint of the concentration-response curve, whichever way the signal moves. As usually defined, the GI50 is the concentration at which growth is held to half of that of the control.
